Experimental data as given in ChEMBL document CHEMBL1123608, “In vivo antitumor activity of 6-benzyl-1,3-benzodioxole derivatives against the P388, L1210, B16, and M5076 murine models” (1987).
Calls of active or inactive are those of the source. No cut-off for these calls is given here.

Experiments:
[1] = tested on: Mus musculus; experiment: The percent increase in life span on P388 cells which were inoculated intraperitoneally in CD2F1 mice at 240 mg/kg dose placed at ranking order 2; format: functional; settings: P388, ip, route intraperitoneal
[2] = tested on: Mus musculus; experiment: The percent increase in life span on P388 cells which were inoculated intraperitoneally in CD2F1 mice at 480 mg/kg dose placed at ranking order 1; format: functional; settings: P388, ip, route intraperitoneal
[3] = tested on: Mus musculus; experiment: Percent increase in life span (ILS) was measured on P388 cells which were inoculated intraperitoneally in CD2F1 mice; format: functional
[4] = tested on: Mus musculus; experiment: The percent increase in life span on P388 cells which were inoculated intraperitoneally in CD2F1 mice at 240 mg/kg dose placed at ranking order 1; format: functional; settings: P388, ip, route intraperitoneal
[5] = tested on: Mus musculus; experiment: The percent increase in life span on P388 cells which were inoculated intraperitoneally in CD2F1 mice at 100 mg/kg dose placed at ranking order 2; format: functional; settings: P388, ip, route intraperitoneal
[6] = Ability to inhibit the dibutyryl-cAMP-induced change of an immature glioma cell to a mature, differentiated astrocyte by in vitro astrocytoma assay at 100 ug/mL dose (Experiment #1); value may range from 91 to up; format: functional, Mus musculus
[7] = Ability to inhibit the dibutyryl-cAMP-induced change of an immature glioma cell to a mature, differentiated astrocyte by in vitro astrocytoma assay at 100 ug/mL dose (Experiment #2)value may range from 71 to 90; format: functional, Mus musculus
[8] = Ability to inhibit the dibutyryl-cAMP-induced change of an immature glioma cell to a mature, differentiated astrocyte by in vitro astrocytoma assay at 10 ug/mL dose (Experiment #2); value may range from 31 to 50; format: functional, Mus musculus
[9] = Ability to inhibit the dibutyryl-cAMP-induced change of an immature glioma cell to a mature, differentiated astrocyte by in vitro astrocytoma assay at 10 ug/mL dose (Experiment #1); value may range from 31 to 50; format: functional, Mus musculus
[10] = Ability to inhibit the dibutyryl-cAMP-induced change of an immature glioma cell to a mature, differentiated astrocyte by in vitro astrocytoma assay at 1 ug/mL dose (Experiment #2) value may range from 16 to 30; format: functional, Mus musculus
[11] = Ability to inhibit the dibutyryl-cAMP-induced change of an immature glioma cell to a mature, differentiated astrocyte by in vitro astrocytoma assay at 1 ug/mL dose (Experiment #1); value may range from 16 to 30; format: functional, Mus musculus
[12] = tested on: Mus musculus; experiment: In vivo antitumor activity against the L1210 leukemia cell line expressed as percent increase in life span; IA means inactive; format: functional, organism-based
[13] = tested on: Mus musculus; experiment: In vivo antitumor activity against the M5076 reticulum cell sarcoma expressed as percent increase in life span; IA means inactive; format: functional, organism-based
[14] = tested on: Mus musculus; experiment: In vivo antitumor activity against the B16 melanoma cell line expressed as percent increase in life span; IA means inactive; format: functional, organism-based
[15] = tested on: Mus musculus; experiment: The percent increase in life span on P388 cells which were inoculated intraperitoneally in CD2F1 mice at 100 mg/kg dose placed at ranking order 1; format: functional; settings: P388, ip, route intraperitoneal
[16] = tested on: Mus musculus; experiment: The percent increase in life span on P388 cells which were inoculated intraperitoneally in CD2F1 mice at 200 mg/kg dose placed at ranking order 2; format: functional; settings: P388, ip, route intraperitoneal
[17] = tested on: Mus musculus; experiment: The percent increase in life span on P388 cells which were inoculated intraperitoneally in CD2F1 mice at 50 mg/kg dose placed at ranking order 3; format: functional; settings: P388, ip, route intraperitoneal
[18] = tested on: Mus musculus; experiment: The percent increase in life span on P388 cells which were inoculated intraperitoneally in CD2F1 mice at 5 mg/kg dose placed at ranking order 1; format: functional; settings: P388, ip, route intraperitoneal
[19] = tested on: Mus musculus; experiment: The percent increase in life span on P388 cells which were inoculated intraperitoneally in CD2F1 mice at 400 mg/kg (tested in the same control) dose placed at ranking order 4; format: functional; settings: P388, ip, route intraperitoneal
[20] = tested on: Mus musculus; experiment: The percent increase in life span on P388 cells which were inoculated intraperitoneally in CD2F1 mice at 400 mg/kg dose placed at ranking order 1; format: functional; settings: P388, ip, route intraperitoneal
[21] = tested on: Mus musculus; experiment: In vivo antitumor activity against the B16 melanoma cell sarcoma expressed as percent increase in life span; IA means inactive; format: functional, organism-based
[22] = tested on: Mus musculus; experiment: In vivo antitumor activity against the L1210 leukemia cell line expressed as percent increase in life span at 200 mg/kg dose; format: functional
[23] = tested on: Mus musculus; experiment: The percent increase in life span on P388 cells which were inoculated intraperitoneally in CD2F1 mice at 400 mg/kg dose placed at ranking order 3; format: functional; settings: P388, ip, route intraperitoneal

SMILES: CCOc1cc2c(cc1C(C)(C)c1ccc(OC)cc1)OCO2
- ILS at 240 mg/kg [1]: 25%
- ILS at 480 mg/kg [2]: 35%
- ILS [3]: 35%

SMILES: CCCOc1cc2c(cc1C(C)c1ccc(OCC)cc1)OCO2 (configuration not stated)
- ILS at 240 mg/kg [4]: 41%
- ILS [3]: 41%
- ILS at 100 mg/kg [5]: 26%

SMILES: CCOc1cc2c(cc1C(C)c1ccc(OC)cc1)OCO2 (configuration not stated)
- Astrocyte reversal [6]: 91%
- Astrocyte reversal [7]: 90%
- Astrocyte reversal [8]: 50%
- Astrocyte reversal [9]: 50%
- Astrocyte reversal [10]: 30%
- Astrocyte reversal [11]: 30%
- ILS [12]: inactive
- ILS [13]: inactive
- ILS [14]: inactive
- ILS [3]: 25%
- ILS at 100 mg/kg [15]: 25%
- ILS at 100 mg/kg [5]: 23%

SMILES: CCOc1ccc(C(C)c2cc3c(cc2OCC)OCO3)cc1 (configuration not stated)
- ILS at 200 mg/kg [16]: 56%
- ILS at 50 mg/kg [17]: 36%
- ILS at 5 mg/kg [18]: 71%
- ILS [3]: 71%

SMILES: O=c1[nH]cc(F)c(=O)[nH]1 [FLUOROURACIL]
- ILS [3]: 73%

SMILES: COc1cc(C(C)c2cc3c(cc2OCCO)OCO3)cc(OC)c1OC (configuration not stated)
- ILS at 200 mg/kg [16]: 66%
- ILS at 400 mg/kg [19]: 49%
- ILS at 400 mg/kg [20]: 80%
- ILS [21]: inactive
- ILS at 200 mg/kg ([22]; Mus musculus, L1210, dose 200 mg/kg): 43%
- ILS ([22]; dose 200 mg/kg): 33%
- ILS [13]: inactive
- ILS at 400 mg/kg [23]: 61%
- ILS [3]: 80%
